Measurements from PubChem BioAssay (NCI).
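The compound was tested at five concentrations on cells cultured in 96-well plates, with a 48-hour exposure period. The concentration for 50% growth inhibition is given as GI50. TGI: total growth inhibition.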

How the values were obtained:
Assay in all cases: NCI anticancer screen, dose series, 48 h
[1] = test system: SW-620 colon
[2] = test system: UACC-62 melanoma
[3] = test system: OVCAR-8 ovarian
[4] = test system: NCI-H460 lung
[5] = test system: HCC-2998 colon
[6] = test system: UO-31 renal
[7] = test system: HOP-62 NSCLC
[8] = test system: EKVX NSCLC
[9] = test system: OVCAR-5 ovarian
[10] = test system: HS 578T breast

Row | SMILES | TGI [1] [µM] | TGI [2] [µM] | TGI [3] [µM] | TGI [4] [µM] | TGI [5] [µM] | TGI [6] [µM] | TGI [7] [µM] | TGI [8] [µM] | TGI [9] [µM] | TGI [10] [µM] | GI50 [1] [µM] | GI50 [9] [µM] | GI50 [3] [µM] | GI50 [4] [µM] | GI50 [6] [µM] | GI50 [10] [µM] | GI50 [7] [µM] | GI50 [2] [µM] | GI50 [5] [µM] | GI50 [8] [µM]
1 | CC1(Sc2ccccc2)CN(Cc2ccccc2)C1=O (configuration not stated) | > 100 | > 100 | > 100 | > 100 | > 100 | > 100 | > 100 | > 100 |  |  |  |  |  |  |  |  |  |  |  | 
2 | COC(=O)CCC(=O)N1Cc2cc(C)ccc2N(C(=O)CCC(=O)OC)Cc2cc(C)ccc21 | > 100 | > 100 | > 100 | > 100 |  | > 100 | > 100 | > 100 | > 100 |  |  |  |  |  |  |  |  |  |  | 
3 | CC12CCC(=O)C=C1CCC1C2CCC2(C)C(C(=O)Cn3cnc4c(=S)nc[nH]c43)CCC12 (configuration not stated) | > 100 | > 100 | > 100 | > 100 |  | > 100 | 47.1 | > 100 | > 100 | > 100 |  |  |  |  |  |  |  |  |  | 
4 | Cc1ccc2c(c1)C1(C)OC(CC(N)C1O)O2 (configuration not stated) | > 100 | > 100 | > 100 | > 100 |  | > 100 | > 100 | > 100 |  |  |  |  |  |  |  |  |  |  |  | 
5 | CN(C)c1ccc2c(NCCCCCCNc3ccnc4cc(N(C)C)ccc34)ccnc2c1 | > 100 | > 100 | 20.5 | 57 | 70.7 | > 100 | 67.9 | > 100 | 79.6 |  |  |  |  |  |  |  |  |  |  | 
6 | Nc1cc(=O)[nH]c(SC2=NC(N)CC(O)C2)n1 (configuration not stated) | > 100 | > 100 | > 100 | > 100 | > 100 | > 100 | > 100 | > 100 | > 100 |  |  |  |  |  |  |  |  |  |  | 
7 | CCOP(=O)(OCC)C1CCCCOC1=O (configuration not stated) | > 100 | > 100 | > 100 | > 100 | > 100 | > 100 | > 100 | > 100 |  |  |  |  |  |  |  |  |  |  |  | 
8 | O=C1C(Cl)=C(N/N=c2/[nH][nH]/c(=N/NC3=C(Cl)C(=O)c4ccccc4C3=O)c3ccccc23)C(=O)c2ccccc21 | 43.3 |  | 35 | 49.5 |  | 25.9 | 23.2 |  | 39.1 | 66.3 | 16.6 | 18.7 | 15.4 | 19.7 | 12.3 | 13.5 | 10.2 |  |  | 
9 | CC(=O)[O][Pb]([O]C(C)=O)([c]1ccccc1)[c]1ccccc1 | > 100 | 31.1 | > 100 | > 100 | > 100 | > 100 | 52 | > 100 | > 100 |  | 5.42 | 25.9 | 7.15 | 7.51 | > 100 |  | 25.2 | 3.88 | 44.9 | > 35
10 | C=C1C(=O)O[C@H]2C[C@@H](C)[C@@H]3CC(=O)OC[C@@]3(C)CC12 (some centres not stated) | 35.1 | 51.9 | 48.3 | 51 | 98.5 | > 100 | > 100 | > 100 |  |  |  |  |  |  |  |  |  |  |  | 
11 | CC1CC2C(=O)NC(=O)C2c2[nH]c3ccccc3c21 (configuration not stated) | > 100 |  | > 100 | > 100 |  | > 100 | > 100 | > 100 | > 100 |  |  |  |  |  |  |  |  |  |  | 
12 | O=C(O)CS(=O)(=O)C(c1ccccc1)c1ccccc1 | > 100 | > 100 | > 100 | > 100 |  | > 100 | > 100 | > 100 | > 100 | > 100 |  |  |  |  |  |  |  |  |  | 
13 | COc1ccccc1[N-]C(C1=C([O-])c2ccccc2C1=O)c1ccccc1.COc1ccccc1[N-]C(C1=C([O-])c2ccccc2C1=O)c1ccccc1.[Cu+2] (configuration not stated) | > 100 | 42.4 | > 100 | > 100 |  | 75.2 | 68.6 |  |  |  | 6.08 |  | 7.52 | 6.76 | 12 |  | 25.2 | 6.66 |  | 
14 | N#CC(C#N)=Cc1ccc(-c2ccc(-c3nc4ccccc4s3)cc2)o1 | > 100 | 70.3 | 33.1 | > 100 | 45.1 | > 100 | 44.2 | > 100 | 24.2 |  | 7.9 | 11.9 | 12.7 | 30.1 | 20.3 |  | 11.4 | 21.7 | 18.9 | 25.7
15 | CN1CCc2c1nc(-c1ccccc1)c1c2N(C)CC1 | > 100 | > 100 | > 100 | > 100 | > 100 | 78.5 | > 100 | > 100 | > 100 |  |  |  |  |  |  |  |  |  |  | 
16 | CCCC(O)[C@@H](O)c1ccc2c(c1O)C(=O)c1c(OC)cccc1C2=O (some centres not stated) | > 100 | 61.8 | > 100 | > 100 | 68.1 | 91.2 | > 100 | > 100 | > 100 |  |  |  |  |  |  |  |  |  |  | 
